Test results reported in publication PMC3388351, “Pseudolaric Acid B Induces Caspase-Dependent and Caspase-Independent Apoptosis in U87 Glioblastoma Cells” (Evidence-based Complementary and Alternative Medicine : eCAM, 2012).
Values belong to the molecule of their own block, whether it stands above or below them.

Tests used:
U87 glioblastoma cells [1] = assay: Cell viability by MTT assay; format: cell-based; conditions: 24 h; for IC50: read-out: IC50, growth inhibition of U87 glioblastoma cells
Procedure: U87 glioblastoma cells were obtained from American Type Culture Collection (ATCC, USA) and maintained in Dulbecco's Modified Eagle's Medium (DMEM) supplemented with 10% fatal bovine serum (FBS) in 5% CO2 at 37°C. Cells were treated with various concentrations of PLAB dissolved in DMSO with a final DMSO concentration of 1% or with DMSO alone for 24 h. DMSO-treated cells were used as control.
Cell viability was assessed by MTT assay and live/dead assay as described by us previously. Briefly U87 cells were treated with various concentrations of PLAB (1 to 100 μM) or Doxorubicin (0.25 to 20 μM) for 24 h. Following treatment, the MTT reagent was added (500 μg/mL) and cells were further incubated at 37°C for 4 h. Subsequently 150 μL DMSO was added to dissolve farmazan crystals and absorbance was measured at 570 nm in a microplate reader (Thermo Scientific). Results were expressed as the percentage of MTT reduction, assuming that the absorbance of control cells was 100%.

[2] = tested on: polymeric tubulin, cyclin B1, CDK1/Cdc2 in U87 glioblastoma cells; assay: Western blot of G2/M phase cell cycle regulators; format: cell-based; conditions: 10 μM PLAB, 3 μM colchicine, 24 h
Procedure: (§1) After drug treatment, adherent and floating cells were collected and proteins were isolated as described previously. Nuclear and cytosolic proteins were extracted using cytosolic and nuclear extraction kit (Keygen, China) according to the manufacturer's instructions. 40 μg proteins were electrophoresed on 10% SDS-PAGE and transferred to PVDF membrane. After blocking with 5% (w/v) nonfat milk and washing with Tris-buffered saline-Tween solution (TBST), membranes were incubated overnight at 4°C with p53 (1 : 1000), BCL-2 (1 : 1000), Bax (1 : 300), Cytochrome c (1 : 200), Caspase-3 (1 : 500), Tubulin (1 : 500), Cyclin B1 (1 : 300), Cdc2 (1 : 300), β-actin (1 : 400), and AIF (1 : 1000) antibodies, respectively. After washing, the blots were incubated with horseradish peroxidase-conjugated goat anti-rabbit IgG or goat anti-mouse IgG or rabbit anti-goat IgG secondary antibodies (1 : 1000, Santa Cruz) for 1 h at room temperature. After washing with TBST, signals were detected using ECL plus chemiluminescence kit on X-ray film (Millipore Corporation, Billerica, USA).
Briefly the cell pellet was resuspended in 0.4 mL monomeric extraction buffer (20 mM Tris-HCl, pH 6.8, 0.14 M NaCl, 1 mM MgCl2, 1 mM EGTA, 0.5% Nonidet P-40 (NP-40), 0.5 mM PMSF, and 4 μg/mL paclitaxel), centrifuge at 12,000 ×g for 10 min and supernatant was removed. The pellets containing polymeric tubulin were resuspended in WIP cell lysis reagent (BIOSS, Beijing Biosynthesis Biotechnology Co., Ltd.) for 30 min and the supernatants (polymeric tubulins) were collected by centrifugation at 12,000 ×g for 10 min. The polymeric tubulins were subjected to Western blot analysis.

U87 glioblastoma cells [3] = assay: Flow cytometry analysis of cell cycle (PI); format: cell-based; conditions: 24 h; for cells in G2/M phase: Mean ± SEM, n = 3, control 17.63 ± 2.06
Procedure: U87 cells were treated with 5 and 10 μM PLAB for 24 h. Following treatment, cells were harvested, washed with PBS, and fixed with 70% ethanol at 4°C for overnight. After washing twice with PBS, cells were stained with a solution containing 50 μg/mL PI and 100 μg/mL RNase A for 30 min in the dark, at room temperature. The DNA contents were analyzed by flow cytometry (Beckman Coulter, Epics XL).

tumor in nude mice = conditions: 15 mg/kg and 25 mg/kg; ref Wong et al. [14]; cited from earlier work
U87 glioblastoma cells [4] = assay: Nuclear morphology / DNA fragmentation by Hoechst 33258 staining; format: cell-based; conditions: 5 and 10 μM, 24 h, Hoechst 33258, dose-dependent
Procedure: After treatment with 5 and 10 μM PLAB for 24 h, U87 cells were collected by centrifugation at 1500 rpm for 5 min, washed twice with PBS and fixed with 4% paraformaldehyde at room temperature for 30 min. After centrifugation, cells were washed with PBS, stained with Hoechst 33258 (50 μg/mL) and incubated at 37°C for 30 min. At the end of incubation, cells were washed and resuspended in PBS for the observation of nuclear morphology under fluorescence microscope (Olympus 1 × 71). At the end, 100 nuclei from control and PLAB-treated groups were counted microscopically for the percentage of cleaved nuclei.

U87 glioblastoma cells [5] = assay: Live/dead assay, calcein AM and PI, flow cytometry; format: cell-based; conditions: 24 h, read-out: viability of U87 glioblastoma cells (live/dead assay)
Procedure: Furthermore, live and dead cells were quantified using the fluorescent probes calcein AM and PI. Calcein AM is cell membrane permeable and stains only viable cells, whereas PI is cell membrane impermeable and stains only dead cells. After treatment, cells were collected, washed with phosphate buffered saline (PBS) and incubated with PBS solution containing 2 μM calcein AM and 4 μM PI in the dark for 20 min at room temperature. After washing, cells were resuspended in PBS and analyzed for the fluorescence of calcein and PI by flow cytometry (Beckman Coulter, Epics XL).

U87 glioblastoma cells [6] = assay: Flow cytometry analysis of apoptosis (Annexin V/PI); format: cell-based; conditions: 24 h, in % (unit assumed)
Procedure: U87 cells were treated with 5 and 10 μM PLAB in the presence or absence of z-VAD-fmk and PFTα for 24 h. After treatment, both adherent and floating cells were collected, washed with PBS, and resuspended in 200 μL of binding buffer containing 5 μL Annexin V and put in the dark for 10 min according to the kit instructions (Beyotime, Shanghai, China). After incubation, cells were labeled with 10 μL PI and samples were immediately analyzed by flow cytometry (Beckman Coulter, Epics XL).

Kunming mice = assay: In vivo organ toxicity (liver, kidneys, body weight, serum biomarkers); set-up: species or system mouse; conditions: 25 mg/kg intraperitoneally daily for 14 days
Procedure: In vivo studies were conducted on 12-14 week old Kunming mice weighing 43-45 g. The mice were maintained in a specific pathogen-free grade animal facility on a 12 h light/dark cycles at 25 ± 2°C. Mouse procedures were approved by the Experimental Animal Committee of Jilin University. Mice were divided into two groups. Group A (n = 5) administered with 50 μL DMSO intraperitoneally; Group B (n = 5) administered with PLAB (25 mg/kg body weight) in 50 μL DMSO intraperitoneally. The experiment was conducted over a period of two weeks. DMSO or drug was administered daily for 14 days, once a day. At the first and last day of the experiment, the body weight of each mouse was measured. At the end of experiment, mice were anesthetized using Pentobarbital sodium (50 mg/kg ip), blood was collected via cardiac puncture, allowed to clot for 10 min, centrifuge at 1000 ×g for 10 min at room temperature. Serum was separated and stored at -20°C until analysis. The liver and kidneys were excised and processed for hematoxylin and eosin staining followed standard procedures. The toxicological effect of PLAB on liver function was assessed by measuring the serum levels of AST, ALT and TBIL. Nephrotoxicity was determined by measuring the serum levels of BUN and Cr. These biochemical parameters were determined by an automated biochemical analyzer ([…] 7170, Japan).

[7] = tested on: p53, Bcl-2, Bax, Caspase-3, PARP, cytochrome c, AIF in U87 glioblastoma cells; assay: Western blot of apoptosis regulators; format: cell-based; conditions: 24 h
Procedure: as §1

- IC50 (U87 glioblastoma cells [1]): 1.8 µM
SMILES: COc1cccc2c1C(=O)c1c(O)c3c(c(O)c1C2=O)C[C@@](O)(C(=O)CO)C[C@@H]3O[C@H]1C[C@H](N)[C@H](O)[C@H](C)O1 [Doxorubicin, reference compound]

SMILES: COC(=O)C1=CC[C@@]23CC[C@@H]([C@@](C)(/C=C/C=C(\C)C(=O)O)OC2=O)[C@@]3(OC(C)=O)CC1 [PLAB, Pseudolaric acid B]
- expression of Cdk1 (Cdc2) [2]: no change in the expression of Cdk1 (Cdc2)
- expression of cyclin B1 [2]: increased the expression of cyclin B1
- expression of polymeric tubulin (tubulin polymerization) [2]: downregulated polymeric tubulin
- cells in G2/M phase (U87 glioblastoma cells [3]; 5 μM): 42.25 ± 2.95
- cells in G2/M phase (U87 glioblastoma cells [3]; 10 μM): 67.32 ± 1.83
- effect of caspase inhibitor on PLAB-induced mitotic arrest (U87 glioblastoma cells [3]; PLAB with z-VAD-fmk (20 μM)): did not prevent mitotic arrest
- inhibition at 100 µM (U87 glioblastoma cells [1]; 100 μM, read-out: inhibition rate): > 85%
- IC50 (U87 glioblastoma cells [1]): ~10 µM
- growth of tumor in nude mice (tumor in nude mice): significantly inhibited the growth of tumor
- toxicity / body weight loss in nude mice (tumor in nude mice): without any sign of toxicity or body weight loss
- nuclear morphological changes (U87 glioblastoma cells [4]): induced obvious nuclear morphological changes including nuclear shrinkage and DNA fragmentation
- viability at 5 µM (U87 glioblastoma cells [5]): 74.7 ± 1.83%
- viability at 10 µM (U87 glioblastoma cells [5]): 56.9 ± 3.47%
- apoptosis rate (U87 glioblastoma cells [6]; 5 μM, Mean ± SEM, n = 3, control 2.52 ± 0.49): 24.43 ± 1.50
- apoptosis rate (U87 glioblastoma cells [6]; 10 μM PLAB with general caspase inhibitor z-VAD-fmk (20 μM)): 16.92 ± 1.30
- apoptosis rate (U87 glioblastoma cells [6]; 10 μM PLAB with p53 inhibitor PFTα (20 μM)): 33.42 ± 2.85
- apoptosis rate (U87 glioblastoma cells [6]; 10 μM, Mean ± SEM, n = 3, control 2.52 ± 0.49): 50.12 ± 3.42
- histopathological changes in liver and kidneys (Kunming mice; hematoxylin and eosin staining): No obvious morphological changes
- TBIL, serum (Kunming mice; n = 5, Mean ± SEM, control 1.0 ± 0.12, n.s.): 1.2 ± 0.26 n.s. μmol/L
- BUN, serum (Kunming mice; n = 5, Mean ± SEM, control 10.94 ± 3.01, n.s.): 9.45 ± 2.53 n.s. mmol/L
- Cr, serum (Kunming mice; n = 5, Mean ± SEM, control 27.4 ± 2.17, n.s.): 36.5 ± 1.99 n.s. μmol/L
- ALT, serum (Kunming mice; n = 5, Mean ± SEM, control 47.30 ± 3.70, n.s.): 55.45 ± 4.35 n.s. U/L
- AST, serum (Kunming mice; n = 5, Mean ± SEM, control 79 ± 5.50, n.s.): 87.66 ± 4.17 n.s. U/L
- change in body weight of mice (Kunming mice; versus control group): No obvious change in body weight
- PARP cleavage [7]: cleavage of PARP into 85 kDa protein
- caspase-3 cleavage [7]: cleaved the caspase-3 into 17 kDa and 12 kDa proteins
- expression of Bax [7]: increased expression of Bax
- expression of Bcl-2 [7]: remarkably decreased
- expression of cytochrome c in cytosol ([7]; cytosolic proteins): increased the expression of cytochrome c in cytosol
- expression of p53 ([7]; dose-dependent): markedly increased the expression of p53
- AIF nuclear translocation ([7]; nuclear proteins): increased the expression of AIF in nucleus dose-dependently
